Assay results reported in PubChem BioAssay (NCI).
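Tested at 5 concentrations; 48 h exposure; 96-well plates; endpoints linearly interpolated, else capped at highest concentration. GI50: concentration for 50% inhibition of growth. The concentration for full growth arrest is given as TGI.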

Legend:
Assay in all cases: DTP human tumour cell line panel, 48 h
[1] = tested on: SR leukemia
[2] = tested on: M14 melanoma
[3] = tested on: HCC-2998 colon
[4] = tested on: NCI-H460 lung
[5] = tested on: MDA-MB-231 breast
[6] = tested on: CCRF-CEM leukemia
[7] = tested on: HOP-62 NSCLC
[8] = tested on: MCF7 breast
[9] = tested on: UO-31 renal
[10] = tested on: HL-60(TB) leukemia
[11] = tested on: CAKI-1 renal
[12] = tested on: IGROV1 ovarian
[13] = tested on: HCT-15 colon
[14] = tested on: K-562 leukemia
[15] = tested on: ACHN renal
[16] = tested on: UACC-257 melanoma
[17] = tested on: SK-MEL-5 melanoma
[18] = tested on: U251 CNS
[19] = tested on: HOP-92 NSCLC
[20] = tested on: TK-10 renal
[21] = tested on: OVCAR-4 ovarian
[22] = tested on: BT-549 breast
[23] = tested on: NCI-H23 lung
[24] = tested on: MOLT-4 leukemia
[25] = tested on: MALME-3M melanoma
[26] = tested on: NCI-H522 lung
[27] = tested on: SW-620 colon
[28] = tested on: DU-145 prostate
[29] = tested on: SK-OV-3 ovarian
[30] = tested on: HCT-116 colon
[31] = tested on: SN12C renal
[32] = tested on: PC-3 prostate
[33] = tested on: RXF 393 renal
[34] = tested on: MDA-MB-435
[35] = tested on: COLO 205 colon
[36] = tested on: LOX IMVI melanoma
[37] = tested on: SK-MEL-28 melanoma
[38] = tested on: A549 NSCLC
[39] = tested on: 786-0 renal
[40] = tested on: SF-295 CNS
[41] = tested on: EKVX NSCLC
[42] = tested on: SNB-19 CNS
[43] = tested on: SK-MEL-2 melanoma
[44] = tested on: KM12 colon
[45] = tested on: OVCAR-5 ovarian
[46] = tested on: OVCAR-3 ovarian
[47] = tested on: NCI-H226 lung
[48] = tested on: OVCAR-8 ovarian
[49] = tested on: A498 renal
[50] = tested on: SNB-75 CNS
[51] = tested on: HT29 colon
[52] = tested on: HS 578T breast
[53] = tested on: SF-268 CNS
[54] = tested on: SF-539 CNS
[55] = tested on: NCI/ADR-RES ovarian
[56] = tested on: UACC-62 melanoma
[57] = tested on: RPMI-8226 leukemia

For `CCCCCCN(CCCCCC)CCCNc1nccc2ccccc12`, the GI50 [1] was 1650 nM, the TGI [1] was 4600 nM and the GI50 [2] was 1420 nM. For the same compound, the TGI [2] was 2890 nM, the GI50 [3] was 1980 nM and the TGI [3] was 3750 nM. It also gave a GI50 [4] of 1400 nM, a TGI [4] of 2880 nM and a GI50 [5] of 1440 nM. The TGI [5] was 2910 nM, the GI50 [6] was 2470 nM and the TGI [6] was 10700 nM. It also gave a GI50 [7] of 1460 nM, a TGI [7] of 3410 nM and a GI50 [8] of 1560 nM. The TGI [8] was 3460 nM, the GI50 [9] was 1350 nM and the TGI [9] was 3040 nM. The GI50 [10] was 1770 nM, the TGI [10] was 4260 nM and the GI50 [11] was 1920 nM. The TGI [11] was 5330 nM, the GI50 [12] was 1890 nM and the TGI [12] was 4750 nM. For the same compound, the GI50 [13] was 1410 nM, the TGI [13] was 3210 nM and the GI50 [14] was 1950 nM. It also gave a TGI [14] of 5180 nM, a GI50 [15] of 1900 nM and a TGI [15] of 4470 nM. It also gave a GI50 [16] of 1840 nM, a TGI [16] of 3540 nM and a GI50 [17] of 1700 nM. For the same compound, the TGI [17] was 3130 nM, the GI50 [18] was 1540 nM and the TGI [18] was 2960 nM. It also gave a GI50 [19] of 1010 nM, a TGI [19] of 2470 nM and a GI50 [20] of 1470 nM. It also gave a TGI [20] of 3020 nM, a GI50 [21] of 2090 nM and a TGI [21] of 7720 nM. It also gave a GI50 [22] of 1790 nM, a TGI [22] of 3470 nM and a GI50 [23] of 1800 nM. The TGI [23] was 3830 nM, the GI50 [24] was 2560 nM and the TGI [24] was 7710 nM. For the same compound, the GI50 [25] was 1940 nM, the TGI [25] was 3910 nM and the GI50 [26] was 1440 nM. For the same compound, the TGI [26] was 3230 nM, the GI50 [27] was 1290 nM and the TGI [27] was 2960 nM. The GI50 [28] was 3420 nM, the TGI [28] was 11900 nM and the GI50 [29] was 2090 nM. It also gave a TGI [29] of 5030 nM, a GI50 [30] of 832 nM and a TGI [30] of 2200 nM. It also gave a GI50 [31] of 2270 nM, a TGI [31] of 7360 nM and a GI50 [32] of 2000 nM. It also gave a TGI [32] of 5540 nM, a GI50 [33] of 1820 nM and a TGI [33] of 5300 nM. The GI50 [34] was 1570 nM, the TGI [34] was 3060 nM and the GI50 [35] was 1480 nM. It also gave a TGI [35] of 3070 nM, a GI50 [36] of 1430 nM and a TGI [36] of 2940 nM. The GI50 [37] was 1640 nM, the TGI [37] was 3170 nM and the GI50 [38] was 2640 nM. For the same compound, the TGI [38] was 7980 nM, the GI50 [39] was 1810 nM and the TGI [39] was 3980 nM. For the same compound, the GI50 [40] was 951 nM, the TGI [40] was 2240 nM and the GI50 [41] was 2650 nM. The TGI [41] was 11800 nM, the GI50 [42] was 2090 nM and the TGI [42] was 6010 nM. For the same compound, the GI50 [43] was 1800 nM, the TGI [43] was 3410 nM and the GI50 [44] was 1810 nM. The TGI [44] was 3560 nM, the GI50 [45] was 1630 nM and the TGI [45] was 4300 nM. The GI50 [46] was 1730 nM, the TGI [46] was 3550 nM and the GI50 [47] was 1610 nM. The TGI [47] was 3500 nM, the GI50 [48] was 1670 nM and the TGI [48] was 3190 nM. The GI50 [49] was 1080 nM, the TGI [49] was 2800 nM and the GI50 [50] was 1650 nM. It also gave a TGI [50] of 4220 nM, a GI50 [51] of 513 nM and a TGI [51] of 1950 nM. The GI50 [52] was 2130 nM, the TGI [52] was 5660 nM and the GI50 [53] was 2530 nM. For the same compound, the TGI [53] was 8510 nM, the GI50 [54] was 1940 nM and the TGI [54] was 3590 nM. For the same compound, the GI50 [55] was 1600 nM, the TGI [55] was 3370 nM and the GI50 [56] was 1690 nM. The TGI [56] was 3410 nM, the GI50 [57] was 1730 nM and the TGI [57] was 4110 nM.
